Results published in US10662193B2, “Carbazole and carboline compounds for use in the diagnosis, treatment, alleviation or prevention of disorders associated with amyloid or amyloid-like proteins” (AC IMMUNE SA, priority 2014, dated 2020).

Tests used:
[1] = tested on: tau tangles/Aβ plaques on AD brain sections; assay: Assay 1: direct staining of human Alzheimer's disease brain sections (fluorescence); type: binding; parameters: key to Direct staining of tau tangles/Aβ plaques on AD brain sections at 100 μM / Direct staining of tau tangles on AD brain sections at 100 μM / Direct staining of Aβ plaques on AD brain sections at 100 μM / Direct staining of tau tangles on AD brain sections (footnote a: at 250 μM): − (No); +++ (strong); ++ (good); + (weak); settings: for Direct staining of tau tangles/Aβ plaques on AD brain sections at 100 μM: human AD brain sections, fluorescence, cell does not say tangles or plaques
Outline: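 Frozen […] amygdala sections from Braak V-VI AD donors, PFA-fixed, incubated with compound at 100 μM in 50% ethanol for 20 min at room temperature in the dark. Sudan Black quenched autofluorescence, then staining detected by fluorescence microscopy.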

[2] = tested on: tau tangles on AD brain section; assay: Assay 1: displacement of RefA on human AD brain sections (fluorescence); type: binding; settings: for Selectivity (tau/Abeta): ratio of competition on tau tangles to competition on Aβ plaques
Procedure: Direct Binding of Compounds of this Invention to Human Alzheimer's Disease Brain Sections and/or Displacement of RefA and Compound B
Frozen sections with a thickness of […] from the amygdala of donors diagnosed with Braak stage V-VI Alzheimer's Disease (Braak, H.; Braak, E. Acta Neuropathol., 1991, 82, 239-259), were purchased from a commercial provider (Tissue Solutions) and kept at −80° C. until use.
Displacement of RefA and Compound B
Brain sections were mainly treated as described above. Test compounds were, however, incubated on the section at 250 μM in 50% ethanol for 20 min at room temperature, and then directly incubated with the fluorescent reference compounds RefA and Compound B, each at 1 μM in 50% ethanol for 20 min at room temperature. RefA and Compound B stainings were visualized using the 470 nm and 365 nm excitation filters, respectively. Images were acquired, and tangles and plaques quantified using the NIS-Element software. Only those compounds not directly staining tangles or plaques at the same wavelengths as RefA and Compound B were tested in the displacement assay.
Structure of RefA (Tago et al., J. Label. Compd. Radiopharm. 2013, DOI: 10.1002/jlcr.3133)

[3] = tested on: Aβ plaques on AD brain section; assay: Assay 1: displacement of Compound B on human AD brain sections (fluorescence); type: binding
Procedure: Direct Binding of Compounds of this Invention to Human Alzheimer's Disease Brain Sections and/or Displacement of RefA and Compound B Frozen sections with a thickness of […] from the amygdala of donors diagnosed with Braak stage V-VI Alzheimer's Disease (Braak, H.; Braak, E. Acta Neuropathol., 1991, 82, 239-259), were purchased from a commercial provider (Tissue Solutions) and kept at -80° C. until use. Displacement of RefA and Compound B Brain sections were mainly treated as described above. Test compounds were, however, incubated on the section at 250 μM in 50% ethanol for 20 min at room temperature, and then directly incubated with the fluorescent reference compounds RefA and Compound B, each at 1 μM in 50% ethanol for 20 min at room temperature. RefA and Compound B stainings were visualized using the 470 nm and 365 nm excitation filters, respectively. Images were acquired, and tangles and plaques quantified using the NIS-Element software. Only those compounds not directly staining tangles or plaques at the same wavelengths as RefA and Compound B were tested in the displacement assay. Structure of Compound B (prepared by a similar procedure described for […] in WO2010/011964): […]

AD brain-enriched PHF = AD brain-enriched PHF (Homo sapiens, UniProt P10636); assay: Assay 2 (filter trap): [3H]RefA radio-binding competition assay and Ki on PHF; settings: [^3H]RefA 10 nM; for Ki: PHF diluted 1/80, compound 0.12 nM to 50 μM
Procedure: Displacement of [^3H]RefA by Compounds of this Invention
50 g of frontal lobe tissue from post-mortem brain of an Alzheimer's disease (AD) patient were obtained from the London Tissue Bank. The patient was a […] and died […]. The brain sample was collected 5 hours post-mortem and characterized for Braak disease stage (Braak, H.; Braak, E. Acta Neuropathol., 1991, 82, 239-259) as stage VI. For the enrichment of PHF's, around 15 g of the AD human brain was thawed on ice and homogenized with 50 ml of homogenization buffer [0.75 M NaCl in RAB buffer (100 mM 2-(N-morpholino) ethanesulfonic acid (MES), 1 mM EGTA, 0.5 mM MgSO4, 2 mM DTT, pH 6.8) supplemented with protease inhibitors (Complete; Roche 11697498001) in a glass Dounce homogenizer. The homogenate was then incubated at 4° C. for 20 min to let any residual microtubules depolymerize, before the homogenate was transferred into polycarbonate centrifuge bottles (16×76 mm; Beckman 355603) and centrifuged at 11,000 g (12,700 RPM) in an ultracentrifuge (Beckman, XL100K) for 20 min at 4° C. using the pre-cooled 70.1 rotor (Beckman, 342184). Pellets were kept on ice. Supernatants were pooled into polycarbonate bottles and centrifuged again at 100,000 g (38,000 RPM) for 1 h at 4° C. in the 70.1 Ti rotor to isolate PHF-rich pellets, whereas soluble tau remained in the supernatants. The pellets from the first and second centrifugations were re-suspended in 120 mL of extraction buffer [10 mM Tris-HCl pH 7.4, 10% sucrose, 0.85 M NaCl, 1% protease inhibitor (Calbiochem 539131), 1 mM EGTA, 1% phosphatase inhibitor (Sigma P5726 and P0044)]. The solution was then transferred into polycarbonate centrifuge bottles (16×76 mm; Beckman 355603) and centrifuged at 15,000 g (14,800 RPM) in an ultracentrifuge (Beckman, XL100K) for 20 min at 4° C. using the 70.1 Ti rotor. In the presence of 10% sucrose and at low speed centrifugation, most PHF remained in the supernatant whereas intact or fragmented NFTs and larger PHF aggregates were pelleted. The pellets were discarded. 20% Sarkosyl (Sigma L7414-10ML) was added to the supernatants to a final concentration of 1% and stirred at room temperature for 1 h. This solution was then centrifuged into polycarbonate bottles at 100,000 g (38,000 RPM) for 1 h at 4° C. in the 70.1 Ti rotor, and the pellets containing PHF-rich material were re-suspended in a total final volume of 1.5 mL of PBS, aliquoted and stored at −80° C.
[^3H]RefA Radio-Binding Competition Assay
AD brain-enriched PHF diluted 1/80 were incubated in the presence of [^3H]RefA at 10 nM and the example compounds of this invention at 2.5 μM (250× excess), for 45 minutes at 37° C. Samples were then analyzed by on GF/B filter plates as described above (in the section “[^3H]RefA radio-binding assay and determination of the dissociation constant (Kd)). Non-specific signal was determined again with an excess of un-labeled RefA and specific binding calculated by subtracting the non-specific signal from the total signal. Competition was calculated as percent, where 0% was defined as the specific binding in the presence of vehicle (2.8% DMSO in PBS) and 100% as the values obtained in the presence of excess cold RefA. Similar assays were performed to determine the competition of the cold compounds on [^3H]RefA on in vitro aggregated recombinant human tau or Abeta1-42 For both recombinant proteins, 20 μg/mL of aggregates were incubated with 10 nM of [^3H]RefA for recombinant human tau or 80 nM of [^3H]RefA for recombinant human Abeta1-42.
Determination of the Binding Affinity (Ki)
Samples were then analyzed on GF/B filter plates as described above and Ki values calculated using Prism V5 (GraphPad).

Chain of AD brain-enriched PHF (P10636 623-708 limits assumed): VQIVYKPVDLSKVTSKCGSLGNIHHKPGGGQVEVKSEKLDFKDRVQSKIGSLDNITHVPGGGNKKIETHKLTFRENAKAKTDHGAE

| Structure (SMILES) | Competition on AD brain section tau tangles (1 μM RefA vs. 250 μM compound) [2] | Selectivity (tau/Abeta) [2] | Competition on AD brain section Aβ plaques (1 μM Compound B vs 250 μM compound) [3] | Ki (AD brain-enriched PHF) | inhibition at 2.5 µM (AD brain-enriched PHF; compound 2.5 μM, no Ki determined) | Direct staining of tau tangles/Aβ plaques on AD brain sections at 100 μM ([1]; 100 μM compound) | Direct staining of tau tangles on AD brain sections (footnote a: at 250 μM) ([1]; 250 μM compound, tangles) | Direct staining of tau tangles on AD brain sections at 100 μM ([1]; 100 μM compound, tangles) | Direct staining of Aβ plaques on AD brain sections at 100 μM ([1]; 100 μM compound, plaques) |
| --- | --- | --- | --- | --- | --- | --- | --- | --- | --- |
| Cn1c2ccncc2c2ccc(Nc3cccc(OC(F)F)c3)nc21 [Example 4] | 91% | ~5.4 fold | 17% | 0.0033 µM |  |  | + (tangles)^a |  |  |
| Cn1c2ccncc2c2ccc(Nc3cccc(N4CCOCC4)c3F)nc21 [Example 12] | 98% | >98 fold | 0% | 0.165 µM |  | − |  |  |  |
| Cn1c2ccncc2c2ccc(N3CCC(CCOCCF)CC3)nc21 [Example 155] | 90% | ~6-fold | 15% |  |  |  |  | + (tangles) + (plaques) | + (tangles) + (plaques) |
| CN1CCc2c(c3ccc(Nc4ccc(F)cc4N4CCOCC4)nc3n2C)C1=O [Example 175] | 6% |  | 0% |  | < 50% | − |  |  |  |

The next lines start with results.

| Competition on AD brain section tau tangles (1 μM RefA vs. 250 μM compound) [2] | Selectivity (tau/Abeta) [2] | Competition on AD brain section Aβ plaques (1 μM Compound B vs 250 μM compound) [3] | Ki (AD brain-enriched PHF) | inhibition at 2.5 µM (AD brain-enriched PHF; compound 2.5 μM, no Ki determined) | Structure (SMILES) | Direct staining of tau tangles/Aβ plaques on AD brain sections at 100 μM ([1]; 100 μM compound) | Direct staining of tau tangles on AD brain sections (footnote a: at 250 μM) ([1]; 250 μM compound, tangles) | Direct staining of tau tangles on AD brain sections at 100 μM ([1]; 100 μM compound, tangles) | Direct staining of Aβ plaques on AD brain sections at 100 μM ([1]; 100 μM compound, plaques) |
| --- | --- | --- | --- | --- | --- | --- | --- | --- | --- |
| 84% | ~2.6 fold | 32% | 0.078 µM |  | Cn1c2ccncc2c2ccc(Nc3cccc(N4CCOCC4)c3)nc21 [Example 1] | − |  |  |  |
| 78% | ~9.8 fold | 8% | 0.233 µM |  | Cn1c2ccncc2c2ccc(Nc3ccc(F)c(N4CCOCC4)c3)nc21 [Example 3] | − |  |  |  |
| 0% |  | 12% | 0.305 µM |  | Cn1c2ccncc2c2ccc(Nc3ccc(F)cc3N3CCOCC3)nc21 [Example 5] | − |  |  |  |
| 84% | >84 fold | 0% | 0.326 µM |  | Cn1c2ccncc2c2ccc(Nc3cc(F)cc(N4CCOCC4)c3)nc21 [Example 7] |  |  | ++ (tangles) |  |
